Results published in ChEMBL document CHEMBL6153034, “Synthesis of dolutegravir derivatives modified by 1,2,3-triazole structure and their anti-inflammatory activity in LPS-induced BV2 cells” (Bioorg Med Chem Lett, 2025).

Key:
[1] = Cytotoxicity against mouse BV-2 cells assessed as cell viability at 1 uM by MTT assay relative to control; type: toxicity, cell-based; settings: read-out: Activity
[2] = Cytotoxicity against mouse BV-2 cells assessed as cell viability at 10 uM by MTT assay relative to control; type: toxicity, cell-based; settings: read-out: Activity
BV-2 [3] = assay: Antiinflammatory activity in LPS induced mouse BV-2 cells assessed as NO production at 1 uM by Griess reagent based assay relative to control
BV-2 [4] = assay: Antiinflammatory activity in LPS induced mouse BV-2 cells assessed as NO production at 10 uM by Griess reagent based assay relative to control

| SMILES | viability at 1 µM [1] | viability at 10 µM [2] | level, % of control at 1 µM (BV-2 [3]) | level, % of control at 10 µM (BV-2 [4]) |
| --- | --- | --- | --- | --- |
| CCc1ccccc1-n1cc(-c2ccc(NC(=O)c3cn4c(c(OC)c3=O)C(=O)N3[C@H](C)CCO[C@H]3C4)cc2)nn1 | 110% | 123% | 118% | 60.2% |
| COc1c2n(cc(C(=O)Nc3cccc(-c4cn(-c5cc(C(F)(F)F)ccc5C(F)(F)F)nn4)c3)c1=O)C[C@@H]1OCC[C@@H](C)N1C2=O | 104% | 42% | 80.8% | 43.6% |
| COc1c2n(cc(C(=O)Nc3ccc(-c4cn(-c5c(C)cc(C)cc5C)nn4)cc3)c1=O)C[C@@H]1OCC[C@@H](C)N1C2=O | 106% | 114% | 98.9% | 78.6% |
| COc1c2n(cc(C(=O)Nc3ccc(-c4cn(-c5ccccc5Cl)nn4)cc3)c1=O)C[C@@H]1OCC[C@@H](C)N1C2=O | 100% | 102% | 98.8% | 79.6% |
| COc1c2n(cc(C(=O)Nc3ccc(-c4cn(-c5ccc(C(F)(F)F)cc5)nn4)cc3)c1=O)C[C@@H]1OCC[C@@H](C)N1C2=O | 53.1% | 45.2% | 77.9% | 76.2% |
| COc1c2n(cc(C(=O)Nc3cccc(-c4cn(-c5ccccc5F)nn4)c3)c1=O)C[C@@H]1OCC[C@@H](C)N1C2=O | 103% | 68.6% | 91.7% | 53.7% |
| COc1c2n(cc(C(=O)Nc3cccc(-c4cn(-c5ccccc5F)nn4)c3)c1=O)C[C@H]1OC[C@H](C)N1C2=O | 91.9% | 63.8% | 97.9% | 88.7% |
| COc1c2n(cc(C(=O)Nc3cccc(-c4cn(-c5cccc(C(F)(F)F)c5)nn4)c3)c1=O)C[C@H]1OC[C@H](C)N1C2=O | 90.7% | 43.6% | 104% | 78.4% |
| COc1c2n(cc(C(=O)Nc3cccc(-c4cn(-c5c(C)cc(C)cc5C)nn4)c3)c1=O)C[C@H]1OC[C@H](C)N1C2=O | 94.6% | 49.3% | 116% | 89.6% |
| COc1c2n(cc(C(=O)Nc3cccc(-c4cn(-c5ccc(F)cc5)nn4)c3)c1=O)C[C@@H]1OCC[C@@H](C)N1C2=O | 111% | 69.2% | 76.6% | 77% |
| CCc1ccccc1-n1cc(-c2cccc(NC(=O)c3cn4c(c(OC)c3=O)C(=O)N3[C@@H](C)CO[C@@H]3C4)c2)nn1 | 99.3% | 46.1% | 107% | 102% |
| COc1c2n(cc(C(=O)Nc3cccc(-c4cn(-c5ccccc5C(F)(F)F)nn4)c3)c1=O)C[C@H]1OC[C@H](C)N1C2=O | 97.4% | 42.9% | 103% | 82.3% |
| COc1c2n(cc(C(=O)Nc3cccc(-c4cn(-c5ccccc5C(F)(F)F)nn4)c3)c1=O)C[C@@H]1OCC[C@@H](C)N1C2=O | 60.6% | 22.8% | 91.5% | 3.88% |
| COc1c2n(cc(C(=O)Nc3ccccc3-c3cn(-c4ccc(C(F)(F)F)cc4)nn3)c1=O)C[C@@H]1OCC[C@@H](C)N1C2=O | 104% | 96.3% | 81% | 84.7% |
| COc1c2n(cc(C(=O)Nc3cccc(-c4cn(-c5ccc(C(F)(F)F)cc5)nn4)c3)c1=O)C[C@H]1OC[C@H](C)N1C2=O | 108% | 63.3% | 102% | 101% |
| COc1c2n(cc(C(=O)Nc3ccc(-c4cn(-c5cccc(C(F)(F)F)c5)nn4)cc3)c1=O)C[C@@H]1OCC[C@@H](C)N1C2=O | 105% | 73.8% | 96.8% | 90.5% |
| COc1c2n(cc(C(=O)Nc3cccc(-c4cn(-c5ccccc5I)nn4)c3)c1=O)C[C@H]1OC[C@H](C)N1C2=O | 99.8% | 48.7% | 143% | 120% |
| COc1c2n(cc(C(=O)Nc3ccccc3-c3cn(-c4ccccc4F)nn3)c1=O)C[C@@H]1OCC[C@@H](C)N1C2=O | 100% | 98.5% | 86.8% | 78.7% |
| COc1c2n(cc(C(=O)Nc3ccccc3-c3cn(-c4ccccc4I)nn3)c1=O)C[C@@H]1OCC[C@@H](C)N1C2=O | 96.7% | 65.8% | 107% | 56.3% |

| SMILES | viability at 1 µM [1] | viability at 10 µM [2] | level, % of control at 1 µM (BV-2 [3]) | level, % of control at 10 µM (BV-2 [4]) |
| --- | --- | --- | --- | --- |
| COc1c2n(cc(C(=O)Nc3cccc(-c4cn(-c5ccccc5Cl)nn4)c3)c1=O)C[C@H]1OC[C@H](C)N1C2=O | 90.7% | 43.6% | 106% | 59.4% |
| COc1ccccc1-n1cc(-c2cccc(NC(=O)c3cn4c(c(OC)c3=O)C(=O)N3[C@@H](C)CO[C@@H]3C4)c2)nn1 | 94.1% | 50.4% | 96.5% | 68% |
| COc1c2n(cc(C(=O)Nc3ccc(-c4cn(-c5ccc(F)cc5)nn4)cc3)c1=O)C[C@@H]1OCC[C@@H](C)N1C2=O | 103% | 73.3% | 91.9% | 82.1% |
| COc1c2n(cc(C(=O)Nc3ccccc3-c3cn(-c4ccccc4Cl)nn3)c1=O)C[C@@H]1OCC[C@@H](C)N1C2=O | 97.9% | 98.3% | 92.4% | 65.9% |
| COc1ccccc1-n1cc(-c2ccc(NC(=O)c3cn4c(c(OC)c3=O)C(=O)N3[C@H](C)CCO[C@H]3C4)cc2)nn1 | 108% | 81.6% | 108% | 107% |
| COc1c2n(cc(C(=O)Nc3cccc(-c4cn(-c5cc(C(F)(F)F)ccc5C(F)(F)F)nn4)c3)c1=O)C[C@H]1OC[C@H](C)N1C2=O | 91.9% | 71.1% | 118% | 109% |
| COc1c2n(cc(C(=O)Nc3ccc(-c4cn(-c5ccccc5)nn4)cc3)c1=O)C[C@@H]1OCC[C@@H](C)N1C2=O | 104% | 70.2% | 88.8% | 91.4% |
| COc1c2n(cc(C(=O)Nc3cccc(-c4cn(-c5ccccc5)nn4)c3)c1=O)C[C@H]1OC[C@H](C)N1C2=O | 111% | 65.6% | 127% | 132% |
| COc1c2n(cc(C(=O)Nc3ccccc3-c3cn(-c4c(C)cc(C)cc4C)nn3)c1=O)C[C@@H]1OCC[C@@H](C)N1C2=O | 107% | 113% | 81.4% | 59.1% |
| COc1c2n(cc(C(=O)Nc3ccc(-c4cn(-c5ccccc5C(F)(F)F)nn4)cc3)c1=O)C[C@@H]1OCC[C@@H](C)N1C2=O | 103% | 103% | 109% | 91.1% |
| CCc1ccccc1-n1cc(-c2ccccc2NC(=O)c2cn3c(c(OC)c2=O)C(=O)N2[C@H](C)CCO[C@H]2C3)nn1 | 111% | 94.7% | 86.7% | 76.3% |
| COc1c2n(cc(C(=O)Nc3ccc(-c4cn(-c5cc(C(F)(F)F)ccc5C(F)(F)F)nn4)cc3)c1=O)C[C@@H]1OCC[C@@H](C)N1C2=O | 108% | 109% | 83% | 69% |
| C[C@@H]1C[C@H]2[C@@H]3CCC4=CC(=O)C=C[C@]4(C)[C@@]3(F)[C@@H](O)C[C@]2(C)[C@@]1(O)C(=O)CO [DEXAMETHASONE] | – | – | – | 65% |
| COc1c2n(cc(C(=O)Nc3cccc(-c4cn(-c5ccc(F)cc5)nn4)c3)c1=O)C[C@H]1OC[C@H](C)N1C2=O | 109% | 68% | 129% | 120% |
| COc1c2n(cc(C(=O)Nc3cccc(-c4cn(-c5cc(C(F)(F)F)cc(C(F)(F)F)c5)nn4)c3)c1=O)C[C@H]1OC[C@H](C)N1C2=O | 97.1% | 69.6% | 114% | 97.9% |
| COc1c2n(cc(C(=O)Nc3ccc(-c4cn(-c5cc(C(F)(F)F)cc(C(F)(F)F)c5)nn4)cc3)c1=O)C[C@@H]1OCC[C@@H](C)N1C2=O | 105% | 71.1% | 105% | 99.6% |
| COc1c2n(cc(C(=O)Nc3cccc(-c4cn(-c5cc(C(F)(F)F)cc(C(F)(F)F)c5)nn4)c3)c1=O)C[C@@H]1OCC[C@@H](C)N1C2=O | 108% | 71.3% | 81.6% | 71.1% |
| COc1c2n(cc(C(=O)Nc3cccc(-c4cn(-c5cccc(C(F)(F)F)c5)nn4)c3)c1=O)C[C@@H]1OCC[C@@H](C)N1C2=O | 47.1% | 16.2% | 99.2% | 2.3% |
| COc1ccccc1-n1cc(-c2ccccc2NC(=O)c2cn3c(c(OC)c2=O)C(=O)N2[C@H](C)CCO[C@H]2C3)nn1 | 102% | 93.5% | 87.1% | 70.3% |
